{"source": "patent US11814372B2", "about": "“Agonists of EPHA and their uses” (CASE WESTERN RESERVE UNIVERSITY, priority 2017, dated 2023)", "key": {"EphA4 LBD": {"target": "T1, EphA4 LBD (Homo sapiens, UniProt P54764)", "T1 construct": "made in house", "T1 sequence (P54764 29-209, species assumed)": "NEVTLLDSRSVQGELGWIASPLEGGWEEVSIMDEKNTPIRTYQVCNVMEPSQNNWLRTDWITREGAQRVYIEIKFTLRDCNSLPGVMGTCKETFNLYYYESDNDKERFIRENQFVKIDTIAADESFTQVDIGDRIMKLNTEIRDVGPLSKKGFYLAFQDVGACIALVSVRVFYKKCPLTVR", "assay": "Isothermal titration calorimetry (ITC) binding", "settings": "read-out: dissociation constant (KD)", "procedure": "Production of the 181-residue EphA4 ligand binding domain (LBD, residues 29-209) and isothermal titration calorimetry (ITC) experiments were performed as previously described. […] By superimposing HSQC spectra, the shifted HSQC peaks could be identified and further assigned to the corresponding residues of the EphA4 ectodomain. The degree of perturbation was measured by an integrated chemical shift index (CSI) calculated by the formula [(ΔH)^2+(ΔN)^2/5]^1/2."}, "EphA2 [1]": {"target": "T2, EphA2 (Homo sapiens, UniProt P29317)", "T2 sequence (P29317 24-976)": "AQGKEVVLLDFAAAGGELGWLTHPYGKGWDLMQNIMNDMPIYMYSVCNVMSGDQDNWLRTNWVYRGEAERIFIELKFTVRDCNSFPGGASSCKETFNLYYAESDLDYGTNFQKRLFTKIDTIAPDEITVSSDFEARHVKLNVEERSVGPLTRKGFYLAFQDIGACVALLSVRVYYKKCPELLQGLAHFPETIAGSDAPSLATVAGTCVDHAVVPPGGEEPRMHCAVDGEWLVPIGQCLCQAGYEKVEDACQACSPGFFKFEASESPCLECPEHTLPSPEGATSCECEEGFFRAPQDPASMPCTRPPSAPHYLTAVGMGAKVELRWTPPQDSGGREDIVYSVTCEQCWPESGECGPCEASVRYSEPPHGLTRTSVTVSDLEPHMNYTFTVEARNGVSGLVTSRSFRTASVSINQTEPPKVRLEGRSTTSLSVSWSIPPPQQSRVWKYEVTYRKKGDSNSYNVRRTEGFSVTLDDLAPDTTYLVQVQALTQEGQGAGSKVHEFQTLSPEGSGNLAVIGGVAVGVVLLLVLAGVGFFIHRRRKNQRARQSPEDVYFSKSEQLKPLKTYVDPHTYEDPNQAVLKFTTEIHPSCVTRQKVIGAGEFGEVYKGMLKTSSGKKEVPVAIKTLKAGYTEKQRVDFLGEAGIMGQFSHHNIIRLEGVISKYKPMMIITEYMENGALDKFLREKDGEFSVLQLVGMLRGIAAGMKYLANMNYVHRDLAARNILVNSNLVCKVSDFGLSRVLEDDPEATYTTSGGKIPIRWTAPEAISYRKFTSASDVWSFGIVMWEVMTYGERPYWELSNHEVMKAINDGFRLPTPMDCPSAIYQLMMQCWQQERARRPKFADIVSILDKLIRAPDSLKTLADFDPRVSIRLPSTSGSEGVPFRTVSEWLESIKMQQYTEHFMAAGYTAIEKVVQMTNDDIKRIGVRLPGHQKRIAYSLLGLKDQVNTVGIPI", "assay": "EphA2 receptor internalization in U373-A2 glioma cells (immunofluorescence)", "assay_type": "cell-based", "design": "expressed in transfected cells; host or cells: MDA-MB-231 (MDA-231-A2), HEK 293 (HEK 293-A2), A172 (A172-A2), U373 (U373-A2)", "settings": "60 min, 50 μM DZ or 1 μg/ml ephrin-A1-Fc", "procedure": "(§1) Cells were plated in 24-well dishes at a density of 100,000 cells/well and grown for 24 hours prior to stimulation with appropriate compounds and ephrins for the given amounts of time. Compounds were prepared in DMSO at 500 times the final concentrations and 0.2% DMSO was used as vehicle control. Following treatment, cells were lysed directly in SDS Gel Loading Buffer and immunoblotted as described previously. Immunoprecipitation and immunofluorescence staining was performed as described. For immunoprecipitation, 300,000 cells/well were plated in 6-well dishes and lysed in modified RIPA Buffer (20 mM Tris-HCl pH 7.4, 20 mM NaF, 150 mM NaCl, 10% glycerol, 0.1% SDS, 0.5% DCA, 2 mM EDTA, 1% Triton X-100) following treatment. Either […] of ephrin-A1-Fc, or […] of EphA2 mouse monoclonal antibody (Clone D7, Millipore) were used, and mouse IgG was used as a negative control for EphA2 IP.\n(§2) Similar to other receptor tyrosine kinases, activation of the EphA2 receptor by its ligand, ephrin-A1, results in receptor internalization and eventual degradation. […] This was first performed using the U373 glioma cell line engineered to overexpress EphA2."}, "EphA2 [2]": {"target": "T2, EphA2", "assay": "Activation of endogenous EphA2 in PC-3 cells (pEphA/B immunoblot)", "assay_type": "cell-based", "design": "host or cells: PC-3", "settings": "endogenous EphA2, 30 minutes", "procedure": "as §1\nTo determine whether the EphA2 agonist activity of doxazosin is cell-context specific, we evaluated the effects of doxazosin on additional cell types. We first utilized HEK 293 cells overexpressing EphA2 (HEK 293-A2) that we described previously. […] Next we tested PC-3 cells that express high levels of endogenous EphA2 receptor. […] We next evaluated the time-course of activation in both MDA-231-A2 and HEK 293-A2 cells upon treatment with a single 50 μM dose of doxazosin."}, "PC3-DAB2IP KD cells": {"tested_on": "PC3-DAB2IP KD cells", "assay": "Haptotactic cell migration toward fibronectin (modified Boyden chamber)", "assay_type": "cell-based, human", "settings": "4 hours", "text": "One of the well-established functions of Eph receptors is the ligand-dependent repulsive guidance of cell migration. As a ligand-mimicking agonist for EphA2, doxazosin is expected to activate EphA2 on tumor cells and repulse migrating tumor cells in vitro. To test this possibility, we first investigated the effects of doxazosin on integrin-mediated haptotactic cell migration toward fibronectin in a modified Boyden chamber cell migration assay. […] The inhibitory effects were observed when doxazosin was presented either in the bottom chamber, or in both top and bottom chambers in the Transwell assay system. […] Therefore, doxazosin can recapitulate a key function attributed to its native ligands, i.e., negative regulation of cell migration."}, "EphA1": {"target": "T3, EphA1 (Homo sapiens, UniProt P21709)", "T3 construct": "expressed in transfected cells; host or cells: HEK 293", "T3 sequence (P21709 26-976)": "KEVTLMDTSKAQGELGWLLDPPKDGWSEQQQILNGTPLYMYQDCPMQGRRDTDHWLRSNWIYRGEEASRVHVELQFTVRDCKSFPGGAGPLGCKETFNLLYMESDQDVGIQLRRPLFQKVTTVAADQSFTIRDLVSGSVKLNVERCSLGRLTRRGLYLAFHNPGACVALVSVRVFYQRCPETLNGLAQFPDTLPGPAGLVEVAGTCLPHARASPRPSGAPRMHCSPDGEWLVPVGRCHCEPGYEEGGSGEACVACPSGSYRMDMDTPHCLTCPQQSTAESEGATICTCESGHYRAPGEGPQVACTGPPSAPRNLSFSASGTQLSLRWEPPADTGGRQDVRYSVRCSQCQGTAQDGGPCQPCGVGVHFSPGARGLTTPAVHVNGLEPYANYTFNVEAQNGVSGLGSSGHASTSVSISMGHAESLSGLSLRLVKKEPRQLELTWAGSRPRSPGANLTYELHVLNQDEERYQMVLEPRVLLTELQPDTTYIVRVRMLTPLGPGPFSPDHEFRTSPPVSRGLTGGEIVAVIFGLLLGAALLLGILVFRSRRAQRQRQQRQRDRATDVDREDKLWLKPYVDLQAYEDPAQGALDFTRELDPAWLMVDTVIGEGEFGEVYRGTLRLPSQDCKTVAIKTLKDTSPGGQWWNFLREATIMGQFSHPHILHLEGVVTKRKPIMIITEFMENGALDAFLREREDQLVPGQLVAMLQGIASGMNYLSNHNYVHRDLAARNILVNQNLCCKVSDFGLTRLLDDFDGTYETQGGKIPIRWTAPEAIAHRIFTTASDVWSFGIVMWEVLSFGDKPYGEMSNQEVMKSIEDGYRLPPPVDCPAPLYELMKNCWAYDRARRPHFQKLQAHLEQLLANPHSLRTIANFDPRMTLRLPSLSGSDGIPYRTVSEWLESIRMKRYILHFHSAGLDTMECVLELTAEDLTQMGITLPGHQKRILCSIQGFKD", "assay": "Eph receptor activation in HEK 293 cells overexpressing EphA1", "assay_type": "cell-based", "settings": "HEK 293 cells overexpressing EphA1, same concentrations, 60 minutes", "method": "Cells were plated in 24-well dishes at a density of 100,000 cells/well and grown for 24 hours prior to stimulation with appropriate compounds and ephrins for the given amounts of time. Compounds were prepared in DMSO at 500 times the final concentrations and 0.2% DMSO was used as vehicle control. Following treatment, cells were lysed directly in SDS Gel Loading Buffer and immunoblotted as described previously. […] For this purpose, HEK 293 cell lines overexpressing EphA1, EphA2, EphA3, EphA4, and EphB3 kinases were utilized."}, "EphA2 [3]": {"target": "T2, EphA2", "assay": "Internalization of endogenous EphA2 in parental MDA-MB-231 cells (immunofluorescence)", "assay_type": "cell-based", "settings": "two hours, 50 μM", "procedure": "as §1, §2"}}, "data": [{"smiles": "COc1cc2nc(N3CCN(C(=O)C4COc5ccccc5O4)CC3)nc(N)c2cc1OC", "note": "(stereo not drawn) [doxazosin]", "values": [{"measurement": "Kd", "setting": "EphA4 LBD", "result": 12.4, "unit": "µM"}, {"measurement": "EphA2 internalization", "setting": "EphA2 [1]", "result": "significant EphA2 internalization"}, {"measurement": "concentration at which EphA2 activation became evident", "setting": "EphA2 [2]", "result": 50, "unit": "µM"}, {"measurement": "haptotactic cell migration toward fibronectin", "setting": "PC3-DAB2IP KD cells", "result": "dose-dependent inhibition of cell migration"}, {"measurement": "EphA1 activation, Eph receptor panel", "setting": "EphA1", "result": "no activation of EphA1"}, {"measurement": "internalization of endogenous EphA2", "setting": "EphA2 [3]", "result": "significant internalization of the endogenous EphA2"}]}]}
